Literature values in US9078816B2, “Buccal, polar and non-polar spray containing ondansetron” (Suda Ltd., priority 1997, dated 2015).

What was measured:
[1] = include headaches, constipation, and dizziness

metabolism (liver): extensively metabolized by the liver | oral bioavailability (oral administration): about 60%
Structure (SMILES): Cc1nccn1CC1CCc2c(c3ccccc3n2C)C1=O (stereo not drawn) [Ondansetron]
adverse effects [1]: mild
